The text below walks through data of paper PMC6161897, “The novel NADPH oxidase 4 selective inhibitor GLX7013114 counteracts human islet cell death in vitro” (PLoS ONE, 2018).

The test system of one test is caspase 3. The test is described as follows: Cleaved caspase 3 immunofluorescence in human islets. Type of test: cell-based. Conditions: palmitate + high glucose 24h, same inhibitor concentrations as Fig 3.
Another test concerns Nox2. Conditions: cited from earlier work.
For test [1] the following is noted: cited from earlier work.
The next test has as its system XO. The conditions noted are these: cited from earlier work.
The subject of another test is human islet. The conditions noted are these: cited from earlier work.
The next test deals with all Nox enzymes. The conditions noted are these: cited from earlier work.
The subject of a further test is EndoC-βH1 cells. Put plainly: EndoC-βH1 cell viability (PI, flow cytometry). Type of test: cell-based, human. Conditions: inhibitor 0.2, 0.5 or 1.0 μM; for cell death rates in EndoC-βH1 cells exposed to cytokines: 2-day incubation; for cell death rates in EndoC-βH1 cells exposed to high glucose + palmitate: 24h incubation. On the procedure:
[…] Cells were then vital stained with 10 μg/ml propidium iodide (PI) for 10 min at 37°C. Free-floating cells and cells attached to the culture dish were washed separately with PBS, pooled and examined by flow cytometry using a FACSCalibur (BD Biosciences, Franklin Lakes, NJ, USA). In each experimental group 10000 cells were examined and gated by PI intensity and FSC signal. The percentage of dead cells was analyzed using […] software (BD Biosciences).
On the technique in general: A flow cytometer gives signals particle by particle.

The subject of test [2] is human islet cells. Put plainly: Human islet cell viability (PI/bisbenzimide ratio). Type of test: cell-based. Conditions: for human islet cell death, cytokines: IL-1β + IFN-γ 20 ng/ml each; for human islet cell death, cytokines / human islet cell death, high glucose + palmitate: 48h, ML171 2 μM, Phox-I2 2 μM, GLX7013114 1 μM; for human islet cell death, high glucose + palmitate: palmitate 1.5 mM + 20 mM glucose. The protocol: […] Cell viability was measured by staining cells with propidium iodide (20 μg/ml) and bisbenzimide (5 μg/ml) for 20 min at 37°C. The medium was replaced with PBS and the red and blue fluorescence was detected using a Nikon Eclipse fluorescence TE2000-U microscope (Nikon Instruments, Amsterdam, the Netherlands). The ratio of red to blue was taken as a relative measure of cell death (necrosis and late apoptosis) and was quantified using the Image J software (National Institutes of Health).

The target in a further test is T1, Nox4 (Homo sapiens, UniProt Q9NPH5).
T1 construct: host or cells: HEK 293 (CJ, constitutive) and T-REx-293 (tetracycline-inducible)
T1 sequence (Q9NPH5 1-578): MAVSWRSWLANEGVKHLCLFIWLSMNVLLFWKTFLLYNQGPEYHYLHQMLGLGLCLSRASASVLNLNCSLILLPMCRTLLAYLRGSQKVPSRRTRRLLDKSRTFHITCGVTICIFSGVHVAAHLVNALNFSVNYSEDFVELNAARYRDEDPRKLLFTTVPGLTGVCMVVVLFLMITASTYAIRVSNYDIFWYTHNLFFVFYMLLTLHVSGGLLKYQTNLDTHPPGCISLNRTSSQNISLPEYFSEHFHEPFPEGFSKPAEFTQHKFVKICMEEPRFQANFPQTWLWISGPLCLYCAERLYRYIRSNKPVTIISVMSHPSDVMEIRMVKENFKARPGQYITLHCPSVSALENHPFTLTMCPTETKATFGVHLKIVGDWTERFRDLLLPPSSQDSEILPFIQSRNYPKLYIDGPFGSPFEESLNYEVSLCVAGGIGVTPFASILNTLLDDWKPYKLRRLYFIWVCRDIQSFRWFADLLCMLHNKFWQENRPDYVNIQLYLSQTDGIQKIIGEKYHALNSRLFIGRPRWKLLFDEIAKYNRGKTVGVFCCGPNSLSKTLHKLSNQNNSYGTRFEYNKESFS
T1 sequence (P13498 2-195 partner limits assumed): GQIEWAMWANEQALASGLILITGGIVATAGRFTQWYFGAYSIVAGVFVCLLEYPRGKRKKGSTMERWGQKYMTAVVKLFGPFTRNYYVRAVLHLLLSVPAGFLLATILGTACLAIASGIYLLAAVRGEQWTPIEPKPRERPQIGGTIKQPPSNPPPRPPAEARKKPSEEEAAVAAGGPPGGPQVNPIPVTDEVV
The conditions noted are these: cited from earlier work.

For test [3], the system named is human islet cells. Put plainly: ROS production in human islets (DCF fluorescence). The conditions noted are these: palmitate 1.5 mM + 20 mM glucose 24h, inhibitor during last 3h: DPI 0.2 μM, Dapsone 10 μM, GLX351322 10 μM, GLX481372 6 μM. The class given is cell-based.
Method: Human islets were incubated at control condition (cultured as described above) or with the addition of 1.5 mM palmitate (2% BSA) + 20 mM high glucose for 24h. During the last 3h of the 24h incubation, Nox inhibitors were added to the culture medium. During the last 40 min of the 24h incubation, human islets were loaded with the free radical indicator carboxy-H2DCFDA (5-(and-6)-carboxy-2',7'-dichlorodihydrofluorescein diacetate, 10 μM, Life Technologies, Stockholm, Sweden) at 37 °C. Hoechst stain (Life Technologies), which labels cell nuclei, was added during the last 10 min of this incubation. The islets were then washed and placed on the stage of an inverted confocal microscope (Nikon TE2000-U) and analyzed for green (DCF—dichlorofluorescein) and blue fluorescence (Hoechst). For each treatment group, 5 images (100–250 cells in each image) were taken at different areas. The intensity of green (DCF) and blue (Hoechst) signals was quantified using Image J software (National Institutes of Health, USA) and ratios between green and blue signals were calculated as a relative measure of oxidative stress.
A further test deals with DUOX1. On the set-up: method as in PMID 24053146. Conditions: cited from earlier work.

Each structure is given as a SMILES string. pIC50: −log10 of the molar value.

Turning to `CCOC(=O)c1c(NC(=O)CN2CCN(C(=O)c3ccco3)CC2)sc2c1CCC2` [GLX351322], the “activation of caspase 3 in human islets” value in the test on caspase 3 was “reduced activation of caspase 3”. The pIC50 in the test with Nox2 is 4.40. Further, the “high-fat diet-induced glucose intolerance” value in test [1] is reported as “amelioration of high-fat diet-induced glucose intolerance”. Moreover, the XO inhibition entry in the test with XO was “Inactive”. For the same molecule, the “high glucose-induced inhibition of human islet insulin release and survival” value in the test on human islet is “protected against high glucose-induced inhibition of human islet insulin release and survival”.

As to `c1ccc2c(c1)[I+]c1ccccc1-2` [DPI, diphenyleneiodoniumchloride], in the test on caspase 3, the “activation of caspase 3 in human islets” value was “reduced activation of caspase 3”. The “IC50 values for all Nox enzymes” value at all Nox enzymes was “nM range”. For the same molecule, in the test on Nox2, the pIC50 is […]. Besides, the XO inhibition result in the test with XO is “Yes”.

For `O=[N+]([O-])c1cccc(C2Nc3ccc([N+](=O)[O-])cc3C3C=CCC32)c1` (stereo not shown) [Phox-I2], in the test with EndoC-βH1 cells, the “cell death rates in EndoC-βH1 cells exposed to cytokines” value is listed as “failed to affect cell death rates” and the “cell death rates in EndoC-βH1 cells exposed to high glucose + palmitate” value was “failed to affect cell death rates”. Also, in the test on human islet cells [2], the “human islet cell death, cytokines” value is on record as “failed to protect” and the “human islet cell death, high glucose + palmitate” value is on record as “partially protected”. Further, in the test with Nox2, the pIC50 is 6.00.

On to `CC(=O)c1ccc2c(c1)Nc1ccccc1S2` [ML171], for which, in the test with EndoC-βH1 cells, the “cell death rates in EndoC-βH1 cells exposed to cytokines” value is “failed to affect cell death rates” and the “cell death rates in EndoC-βH1 cells exposed to high glucose + palmitate” value was “failed to affect cell death rates”. In addition, in the test on human islet cells [2], the “human islet cell death, cytokines” value is “failed to reduce human islet cell death” and the “human islet cell death, high glucose + palmitate” value is reported as “failed to reduce human islet cell death”. Further, in the test with Nox2, the pIC50 is […]. Besides, the pIC50 in the test on XO (read-out: XO inhibition) was 5.26.

As to `Nc1ccc(S(=O)(=O)c2ccc(N)cc2)cc1` [dapsone], the “activation of caspase 3 in human islets” value in the test on caspase 3 is reported as “reduced activation of caspase 3”. Besides, the “inhibition of expression/activity of Nox4” value on Nox4 was “μM concentrations”. Also, in the test with human islet cells [2] (palmitate + high glucose 24h, inhibitor throughout: DPI 0.2 μM, Dapsone 10 μM, GLX351322 10 μM, GLX481372 6 μM), the “human islet cell viability (PI and Bisbenzimide ratio)” value is reported as “improved viability”. Also, the “human islet ROS production (DCF/DAPI ratio)” value in the test on human islet cells [3] is listed as “reduced human islet ROS production”. Moreover, the “inhibition of expression/activity of DUOX1” value in the test on DUOX1 was “μM concentrations”.
